Results reported in US7282203B2, “Use of NOTCH pathway interfering agents for treatment of plasma cell disorders” (Health Research, Inc., priority 2003, dated 2007).
pIC50: −log10 of the molar value.

How the values were obtained:
OPM2 MM cells = assay: MTT assay, percent of living OPM2 MM cells cultured on fibroblast cells; assay type: cell-based; conditions: for pIC50: Homo sapiens, OPM-2
Description: FIG. 11A-D. IC50 for OPM2 cells (MM) incubated with doxorubicin (DOX) alone or in the presence of an anti-NOTCH or anti-JAG2 antibody. OPM2 (MM) cells were cultured on fibroblasts (MRC5) In FIG. 11 A, IC50 data is shown for cells incubated with different concentrations of DOX. In FIG. 11B, IC50 data is shown for OPM2 cells on fibroblast with […] DOX, an isotype antibody or an anti-NOTCH-EC antibody. In FIG. 11C, data is shown for the effect of the anti-NOTCH antibody alone, without DOX. In FIG. 11D, IC50 values are shown for OMP2 cells incubated alone, in the presence of DOX or in the presence of DOX with an anti-JAG2 antibody (M8).
To illustrate this embodiment, the anti-NOTCH-EC antibody or the anti-JAG2 antibody was used in combination with doxorubicin (DOX). The OPM2 MM cells were cultured for 48 hours on fibroblast cells with different concentrations of DOX. […] However, when increasing concentrations of the anti-JAG2 were added, the percent of living cells was seen to decrease.

multiple myeloma = conditions: cited from earlier work
MRC5 cell line = assay: Cytokine secretion on incubation of MRC5 cell line with JAG2 binding peptide; assay type: cell-based; conditions: MRC5, different concentrations of peptide
Description: (§1) FIGS. 8A-C. Induction of the secretion of IL-6 (FIG. 8A); VEGF (FIG. 8B) and IGF-1 (FIG. 8C) by incubation of the MRC5 and RPMI8226 cell lines with a JAG2 binding peptide CDENYYSATCNKFCRPRND (SEQ ID NO:1) at the indicated concentrations.
(§2) In order to ascertain the involvement of JAG2 in the induction of the secretion of IL-6, VEGF and IGF-1, we incubated the MRC5 cell line with different concentrations of JAG2 peptide. This peptide corresponds to the binding region of JAG2 that activates NOTCH upon interaction. We also incubated the RPMI8226 cell line with this same peptide.

RPMI8226 cell line = assay: Cytokine secretion on incubation of RPMI8226 cell line with JAG2 binding peptide; assay type: cell-based; conditions: RPMI8226 MM cell line
Description: as §1, §2

COc1cccc2c1C(=O)c1c(O)c3c(c(O)c1C2=O)C[C@@](O)(C(=O)CO)C[C@@H]3O[C@H]1C[C@H](N)[C@H](O)[C@H](C)O1 [DOX, doxorubicin]
percent of living cells (OPM2 MM cells; DOX alone (FIG. 11D)): no effect
pIC50 (OPM2 MM cells; DOX alone, 48 hours on fibroblast cells): ~6.00
pIC50 (OPM2 MM cells; DOX in the presence of 40 μg (27 μg/ml) anti-NOTCH EC antibody): 7.00
reduction of DOX concentration at IC50 (OPM2 MM cells; with 40 μg anti-NOTCH EC antibody versus DOX alone): ~10 times

N[C@@H](Cc1ccc(N(CCCl)CCCl)cc1)C(=O)O [Melphalan]
patients reaching complete remission (CR) (multiple myeloma; conventional chemotherapy, mainly Melphalan): 14%

CC(C)C[C@H](NC(=O)[C@H](Cc1ccccc1)NC(=O)c1cnccn1)B(O)O [PS341]
CR/PR (multiple myeloma; available trials): 47%
patients showing a >75% reduction of paraprotein (multiple myeloma; available trials): 30%

NH2-CDENYYSATCNKFCRPRND-OH (H-CDENYYSATCNKFCRPRND-OH; cysteine pairing not given here) [JAG2 binding peptide]
secretion of IGF-1 (MRC5 cell line): activated
secretion of IL-6 (MRC5 cell line): activated
secretion of VEGF (MRC5 cell line): activated
secretion of IGF-1 (RPMI8226 cell line): no stimulation
secretion of IL-6 (RPMI8226 cell line): no stimulation
secretion of VEGF (RPMI8226 cell line): no stimulation
